Here are results for one compound from patent US10946024B2, “Method for treating cancer” (Epizyme, Inc., priority 2014, dated 2021).

Entries after “also recorded” stand apart in the source; their conditions may differ.

One assay relates to HS-SY-II cells. Kind of assay: Adherent cell line long-term (14-day) proliferation assay, CellTiter-Glo. Format: cell-based, human. To be noted: 14-day long-term proliferation assay. Here is the method: (§1) 96-well plating for 7 day assay: For each adherent cell line, plated cells in a volume of 100 μL in 96-well plates, to be treated in triplicate, either in the evening (to treat with compound the following day) or in morning (to treat with compound in the evening), to allow cells to attach to plates before compound treatment.
(§2) 6-well plates to be split for 7-14 day assay: Plated 2 mL of cells at the correct density in each well of the 6-well plate. Calculated the correct density from the 96-well plate growth curve by multiplying the 96-well density by 30. The factor 30 came from growth area of the 6-well plate divided by the growth area of the 96-well plate (9.5 cm^2/0.32 cm^2=29.7, rounded up to 30), which corresponds to 30-fold more surface area in a 6-well vs. a 96-well plate.
(§3) Day 0: Treated with compound or DMSO by removing media and adding back either 100 μL (for 96-well plate) or 2 mL (for 6-well plate) media with the correct dilutions of compound/DMSO. Table 1 includes an example of 96-well plate map. Plates were incubated for 96 hours.
(§4) Read one 96-well plate with CellTiter-Glo® for a Day 0 reading (media change not necessary for this plate).
(§5) Day 4: Read one 96-well plate with CellTiter-Glo® for a Day 4 reading (media change not necessary for this plate before reading). Replaced media with fresh media containing compound on Day 4 in 96-well plates and 6-well plates.
(§6) Day 7: read final 96-well plate with CellTiter-Glo®.
(§7) Counted individual wells of 6-well plates, and replated cells to initial plating density in 96-well plates, as described above.
(§8) Repeated steps for Days 0-7 for Days 7-14 of the proliferation assay.
(§9) Particularly, approximately 12 hours before compound treatment, HS-SY-II or SW982 cells were plated at the density of 24,000 cells/well and 7,500 cells/well, respectively in 6-well plates. On day 0, cells were treated with either DMSO or compound starting at 10 μmol/L and decreasing in fourfold dilutions. On day 7, the cells in 6-well plates were trypsinized, counted by TC10 automated cell counter (Bio-Rad, Richmond, Calif.) and replated at the density of 800 cells/well and 250 cells/well for HS-SY-II and SW982, respectively in 96-well plates in triplicate. The cells were allowed to adhere to the plate overnight, and treated with either DMSO or compound as on Day 0. On days 0, 7, 11, and 14, cell viability was determined by CellTiter-Glo® Luminescent Cell Viability Assay (Promega) with EnVision 2103 Multilabel Reader (Perkin-Elmer, Wellesley, Mass.). Compound/media was changed with new one on Day 4 and 11. The ratios of the measured values on Days 7, 11, and 14 to that of day 7 were used to plot proliferation from day 7 to day 14, and to calculate the IC50 values on Day 14. […]
(In ATP-based viability assays light output follows the ATP content of the culture.)

For another assay, the system named is SW982 cells. The assay is described as above. The conditions noted are these: SW982, 14-day long-term proliferation assay. Format: cell-based, human. Here is the method: as §1, §2, §3, §4, §5, §6, §7, §8, §9
In assay [1] the test system is H3K27me3 in HS-SY-II xenograft. Nature of the assay: H3K27me3 in tumor of HS-SY-II xenograft, 7 days twice daily oral dosing (ELISA). Format: in vivo, mice. To be noted: for H3K27me3 in tumor, Mean 2 (fold change to vehicle) / H3K27me3 in tumor, Mean Diff. vehicle vs. treated: 7 days; for H3K27me3 in tumor, Dunnett's test Significant?: alpha 0.05. The protocol:
HS-SY-II cells were harvested during mid-log phase growth, and resuspended in Hank balanced salt solution with 50% Matrigel (BD Biosciences). Balb/C-nu mice (Charles River Laboratories Japan) received 1×10^7 cells (0.1 mL cell suspension) subcutaneously in the right flank. Mice carrying tumors of approximately 200 mm^3 (31 days after injection) were sorted into treatment groups with similar mean tumor volumes. Compound A or vehicle (0.5% MC+0.1% Tween-80 in water) was administered at the indicated doses on twice a day for 7 days by oral gavage. Each dose was delivered in a volume of 0.2 mL/20 g mouse (10 mL/kg), and adjusted for the last recorded weight of individual animals. Peripheral blood samples were collected at approximately 5 minutes before and 3 hours after the last dose from Compound A-treated mice. After obtaining plasma samples by centrifugation, the analysis for plasma concentrations of Compound A was conducted by the liquid chromatography-tandem mass spectrometry (LC/MS/MS) method. The UPLC system (Acquity, Waters) equipped with a mass spectrometer (Quattro premier, MICROMASS) was used for quantification of Compound A. The concentrations are plotted (n=5) in FIG. 7A. Each bar represents a mean of plasma concentration in each group.
For FIG. 10D, tumors were snap-frozen in liquid nitrogen. Frozen tumor samples were cut into a 20 mg pieces and placed in 500 μL of ice cold nuclear extraction buffer (10 mM Tris-HCl, 10 mM MgCl2, 25 mM KCl, 1% Triton X-100, 8.6% Sucrose, plus 1× Halt Protease inhibitor cocktail (1861281, Thermo Scientific)) and homogenized with a handy micro homogenizer. Nuclei were collected by centrifugation at 600 g for 5 minutes at 4° C. and washed once with ice cold PBS. Supernatant was removed and histones extracted for one hour with […] 0.4 N cold sulfuric acid. Extracts were clarified by centrifugation at 10,000 g for 10 minutes at 4° C. and transferred to a fresh microcentrifuge tube containing 1 mL of ice cold acetone. Histones were precipitated at −20° C. for overnight, pelleted by centrifugation at 10,000 g for 10 minutes and resuspended in 100 μl of water. Histones were quantified using the BCA protein assay (23225, Pierce). The diluted histones were coated on Immulon 4HBX plates (3855, Thermo Scientific) overnight and ELISA was performed. Briefly, after blocking with PBS containing 0.05% Tween 20 and 2% bovine serum albumin (BSA), the plates were incubated with H3K27me3 antibody (#9733, Cell Signaling Technology) or total histone H3 antibody (AB1791, Abcam). The plates were further incubated with horseradish peroxidase conjugated anti-rabbit IgG (#7074, Cell Signaling Technology), followed by incubated with TMB substrate (TMBS-0100-01, BioFx Laboratories). Subsequently, the developed colors in the wells were measured using a plate spectrophotometer (SpectraMax 250, Molecular Devices) at 450 nm (reference wavelength 650 nm). The H3K27me3 levels were adjusted to total histone H3, and expressed as fold changes to vehicle control. The values are plotted (n=6) in FIG. 10D. Each bar represents a mean of the values in each group. […] Histones were extracted and quantified, and the levels of H3K27me3 were analyzed as described above. Trimethylation levels of H3K27 in the tumor are plotted (n=5) in FIG. 7B. Each bar represents a mean±SEM of the trimethylation level in each group.

Regarding `CCN(c1cc(-c2ccc(CN3CCOCC3)cc2)cc(C(=O)NCc2c(C)cc(C)[nH]c2=O)c1C)C1CCOCC1` [Compound A], the results for the “sensitivity of cell proliferation” value in the assay with HS-SY-II cells and in the assay on SW982 cells were “highly sensitive; also recorded: high sensitivity” and “are not; also recorded: did not; also recorded: not sensitive”, respectively. The “H3K27me3 in tumor, Dunnett's test Summary” value in assay [1] (125 mg/kg), in assay [1] (250 mg/kg) and in assay [1] (500 mg/kg) was “* * *” in each case. The “H3K27me3 in tumor, Mean 2 (fold change to vehicle)” value in assay [1] (125 mg/kg oral twice daily) is given as 0.7; in assay [1] (250 mg/kg oral twice daily) it was 0.55; in assay [1] (500 mg/kg oral twice daily) it was 0.304. The “H3K27me3 in tumor, Mean Diff. vehicle vs. treated” value in assay [1] (125 mg/kg oral twice daily) was 0.3; in assay [1] (250 mg/kg oral twice daily) it was 0.45; in assay [1] (500 mg/kg oral twice daily), 0.696. For the same compound, the “H3K27me3 in tumor, Dunnett's test Significant?” value in assay [1] (125 mg/kg), in assay [1] (250 mg/kg) and in assay [1] (500 mg/kg) was “Yes” throughout. In assay [1] (oral twice daily for 7 days), the “H3K27me3 levels in tumor tissues” value was “dose dependent decrease”.
